Test results reported in patent US20140057953A1, “BIARYL DERIVATIVES AS SELECTIVE 17BETA-HYDROXYSTEROID DEHYDROGENASE TYPE 2 INHIBITORS” (priority 2011, published 2014).

What was measured:
17β-HSD2 = biological target: T1, 17β-HSD2 (Homo sapiens, UniProt P37059); assay: Inhibition of 17β-HSD2 in cell-free assay; type: biochemical; set-up: 17β-HSD2 was obtained directly from the microsomal fraction; from tissue; host or cells: human placenta, microsomal fraction; settings: human placenta, microsomal fraction, substrate E2 500 nM, cofactor NAD+ 1500 μM; for inhibition at 1 µM / % inhibition 17β-HSD2: inhibitor concentration 1 μM
T1 sequence (P37059 1-387): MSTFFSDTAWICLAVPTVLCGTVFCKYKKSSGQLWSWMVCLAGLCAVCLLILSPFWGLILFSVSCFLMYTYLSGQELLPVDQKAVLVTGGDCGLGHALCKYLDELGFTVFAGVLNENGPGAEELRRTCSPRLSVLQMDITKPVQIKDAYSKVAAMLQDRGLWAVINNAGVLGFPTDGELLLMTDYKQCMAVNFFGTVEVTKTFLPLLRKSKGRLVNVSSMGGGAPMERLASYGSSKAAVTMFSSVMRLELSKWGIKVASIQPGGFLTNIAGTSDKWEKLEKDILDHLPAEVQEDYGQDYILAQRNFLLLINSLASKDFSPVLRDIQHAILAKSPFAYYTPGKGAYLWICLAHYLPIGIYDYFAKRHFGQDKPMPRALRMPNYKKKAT
Procedure: (§1) Fresh human placenta was homogenized. Cytosolic and microsomal fractions were separated by centrifugation at 1000 g, 10000 g and 150000 g. 17β-HSD2 was obtained directly from the microsomal fraction. For the partial purification of 17β-HSD1, the cytosolic fraction was precipitated with ammonium sulfate. Aliquots containing 17β-HSD1 or 17β-HSD2 were stored frozen.
Inhibitor stock solutions were prepared in DMSO. Final concentration of DMSO was adjusted to 1% in all samples. The enzymatic reaction was started by addition of a mixture of unlabelled- and [^3H]-E2 (final concentration: 500 nM, 0.11 μCi). After 20 min at 37° C., the incubation was stopped with HgCl2 and the mixture was extracted with ether. After evaporation, the steroids were dissolved in acetonitrile. E1 and E2 were separated using acetonitrile/water (45:55) as mobile phase in a C18 RP chromatography column (Nucleodur C18, 3 μm, Macherey-Nagel, Duren) connected to a HPLC-system (Agilent 1100 Series, Agilent Technologies, Waldbronn). Detection and quantification of the steroids were performed using a radioflow detector (Berthold Technologies, Bad Wildbad). The conversion rate was calculated according to the following equation: […]

17β-HSD1 = biological target: T2, 17β-HSD1 (Homo sapiens, UniProt P14061); assay: Inhibition of 17β-HSD1 in cell-free assay; type: biochemical; settings: human placenta, cytosolic fraction, substrate E1 500 nM, cofactor NADH 500 μM; for inhibition at 1 µM / % inhibition 17β-HSD1: inhibitor concentration 1 μM
T2 construct: For the partial purification of 17β-HSD1, the cytosolic fraction was precipitated with ammonium sulfate; from tissue; host or cells: human placenta, cytosolic fraction
T2 sequence (P14061 1-328): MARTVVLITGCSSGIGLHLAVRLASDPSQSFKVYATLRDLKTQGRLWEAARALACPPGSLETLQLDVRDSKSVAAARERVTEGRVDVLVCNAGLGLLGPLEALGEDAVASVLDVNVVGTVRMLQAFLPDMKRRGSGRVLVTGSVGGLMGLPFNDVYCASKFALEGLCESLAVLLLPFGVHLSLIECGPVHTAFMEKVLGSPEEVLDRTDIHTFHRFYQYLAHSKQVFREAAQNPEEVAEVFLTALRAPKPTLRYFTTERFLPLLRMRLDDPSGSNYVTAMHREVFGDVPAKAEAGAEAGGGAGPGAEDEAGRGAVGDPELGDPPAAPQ
Procedure: as §1
The 17β-HSD1 inhibition assay was performed similarly to the 17β-HSD2 test. The cytosolic fraction was incubated with NADH [500 μM], test compound and a mixture of unlabelled- and [^3H]-E1 (final concentration: 500 nM, 0.15 μCi) for 10 min at 37° C. Further treatment of the samples and HPLC separation was carried out as mentioned above for 17β-HSD2.

COc1cccc(CCN(C)C(=O)c2ccc(-c3ccccc3)s2)c1 [compound 19, N-(3-Methoxyphenethyl)-N-methyl-5-phenylthiophene-2-carboxamide]
inhibition at 1 µM (17β-HSD2): 18% | inhibition at 1 µM (17β-HSD1): 11%

CN(CCc1cccc(O)c1)C(=O)c1ccc(-c2ccccc2)s1 [compound 20, N-(3-Hydroxyphenethyl)-N-methyl-5-phenylthiophene-2-carboxamide]
inhibition at 1 µM (17β-HSD2): 11% | % inhibition 17β-HSD1 (17β-HSD1): n.i.^e

COc1cccc(CCN(C)C(=O)c2ccc(-c3cccc(F)c3)s2)c1 [compound 21, 5-(3-Fluorophenyl)-N-(3-methoxyphenethyl)-N-methylthiophene-2-carboxamide]
% inhibition 17β-HSD2 (17β-HSD2): n.i.^e | % inhibition 17β-HSD1 (17β-HSD1): n.i.^e

CN(CCc1cccc(O)c1)C(=O)c1ccc(-c2cccc(F)c2)s1 [compound 22, 5-(3-Fluorophenyl)-N-(3-hydroxyphenethyl)-N-methylthiophene-2-carboxamide]
inhibition at 1 µM (17β-HSD2): 17% | inhibition at 1 µM (17β-HSD1): 12%

COc1cccc(CN(C)C(=O)c2ccc(-c3ccccc3OC)s2)c1 [compound 27, N-(3-Methoxybenzyl)-5-(2-methoxyphenyl)-N-methylthiophene-2-carboxamide]
inhibition at 1 µM (17β-HSD2): 48% | % inhibition 17β-HSD1 (17β-HSD1): n.i.^e

COc1cccc(CN(C)C(=O)c2ccc(-c3ccc(C#N)cc3)s2)c1 [compound 31, 5-(4-Cyanophenyl)-N-(3-methoxybenzyl)-N-methylthiophene-2-carboxamide]
% inhibition 17β-HSD2 (17β-HSD2): n.i.^e | % inhibition 17β-HSD1 (17β-HSD1): n.i.^e

CN(Cc1cccc(O)c1)C(=O)c1ccc(-c2cccc(F)c2)s1 [compound 41, 5-(3-Fluorophenyl)-N-(3-hydroxybenzyl)-N-methylthiophene-2-carboxamide]
IC50 (17β-HSD2): 326 nM | IC50 (17β-HSD1): 3150 nM

COc1cccc(N(C)C(=O)c2ccc(-c3ccc(OC)cc3OC)s2)c1 [compound 57, 5-(2,4-Dimethoxyphenyl)-N-(3-methoxyphenyl)-N-methylthiophene-2-carboxamide]
IC50 (17β-HSD2): 313 nM | IC50 (17β-HSD1): 1930 nM

COc1cccc(N(C)C(=O)c2ccc(-c3ccc(F)c(OC)c3)s2)c1 [compound 62, 5-(4-Fluoro-3-methoxyphenyl)-N-(3-methoxyphenyl)-N-methylthiophene-2-carboxamide]
IC50 (17β-HSD2): 726 nM | IC50 (17β-HSD1): > 100000 nM

COc1ccc(N(C)C(=O)c2ccc(-c3cccc(OC)c3F)s2)cc1 [compound 73, 5-(2-Fluoro-3-methoxyphenyl)-N-(4-methoxyphenyl)-N-methylthiophene-2-carboxamide]
inhibition at 1 µM (17β-HSD2): 49% | inhibition at 1 µM (17β-HSD1): 18%

COc1cccc(-c2ccc(C(=O)N(C)c3cccc(-c4ccccc4)c3)s2)c1 [compound 76, N-(Biphenyl-3-yl)-5-(3-methoxyphenyl)-N-methylthiophene-2-carboxamide]
IC50 (17β-HSD2): 137 nM | IC50 (17β-HSD1): 1110 nM
